Test results taken from US5409935A, “Xanthine derivatives for the treatment of secondary nerve cell damage and functional disorders after cranio-cerebral traumas” (Hoechst Aktiengesellschaft, priority 1991, dated 1995).

Assays:
[1] = arterial circulatory disorders, known; cited from earlier work
microglia cells = test: Flow-cytometric free radical formation (Rhodamine 123 fluorescence) in cultured microglia cells; assay type: cell-based, newborn rats; conditions: for inhibition at 50 µM: Rattus norvegicus, Microglia, * p < 0.05
Description: In order to measure the intracellular generation of oxygen free radicals in peritoneal macrophages and in cultures of activated microglia, a flow-cytometric method was used (Rothe, Oser, Valet, Naturwissenschaften, 75, 354, 1988). Specifically, the free radical formation in individual viable cells was determined by measuring the intracellular oxidation of the membrane-permeable and non-fluorescent Dihydrorhodamine 123 (DHR; Eugene, Ore., USA) to the membrane-impermeable and intracellularly "trapped", green fluorescent Rhodamine 123.
DHR was dissolved in a 43.3 mM stock solution in N,N-dimethylformamide (DMF; Merck, Darmstadt, F.R.G.). The method is also suitable for the individual and simultaneous measurement of various subpopulations within a heterogeneous cell population; it therefore allows the exclusion of contaminating populations. Moreover, in another series of tests the identification of the cell type to be measured in each case was simultaneously confirmed during the flow-cytometric measurement by specific immunocytochemical antibody staining. Peritoneal macrophages were obtained by peritoneal washing of white male Wistar rats aged 12 weeks with 10 ml of HBS-Hanks (Serva Feinbiochemica, Heidelberg). The cells were sedimented at 200 g and 20° C. for 5 min and resuspended in HBS-Hanks (4×10^6 cells/ml). All cells were stored for a period of at most 2 hours after preparation until flow-cytrometric analysis at 4° C.
Microglia cultures from the brain of newborn rats were prepared (Giulian & Baker, J. Neuroscience, 1986, 6:2163-2178). After mechanical dissociation of the tissue in Dulbecco's modified Eagle's medium (Sigma Chemie, DMEM), supplemented with 2 g/l of NaHCO3 and 20% heat-inactivated fetal calf serum, the primary cultures were kept in […] culture flasks at 3% pCO2 and 37° C. for 2 to 4 weeks. Cells which grew on the surface of a continuous cell layer were removed by shaking, pelleted and resuspended (3×10^6 cells/ml) in Hepes Hanks buffered salt solution (5 mM Hepes, 0.15M NaCl, pH 7.35; Serva Feinbiochemica, Heidelberg, F.R.G.). In order to test the effect of the compound 1, in the experimental groups the DHR-loaded cells were incubated with 50 μM of the compound according to the invention for 15, 25, 35, 45 and 60 min, to be precise with or without parallel stimulation of free radical formation by concanavalin A (conA, 100 μM/ml). No active substance was added to the respective control groups.
The cell volume and two fluorescences were simultaneously measured in about 10,000 cells per sample using a FACScan flow cytometer (Becton Dickinson, San Jose, Calif., USA). Rhodamine 123 green fluorescence (500-530 nm) and propidium iodide red fluorescence (590-700 nm) were measured with excitation by an argon laser with a wavelength of 488 nm. The flow cytometer was calibrated with standardized yellow-green-fluorescing microspheres of 4.3 μm diameter (Polysciences, St. Goar, F.R.G.).
(§1) Each measurement is based on the individual measurements of the cells contained in a sample (about 10,000). In order to keep the experimental boundary conditions as constant as possible, several experiments were carried out successively on the same day. In such a test series, in each case four different samples of an experimental group and their control were measured by flow cytometry at variously defined points of time. As a rule, 3-4 test series were carried out per experimental group.

peritoneal macrophages = test: Flow-cytometric free radical formation (oxidation of Dihydrorhodamine 123 to Rhodamine 123) in peritoneal macrophages, conA-stimulated; assay type: cell-based, white male Wistar rats; conditions: for fluorescence, conA ± Comp. 1: 50 μM compound 1, conA-stimulated; for inhibition at 50 µM: conA-stimulated, * p < 0.05
Description: Peritoneal macrophages were obtained by peritoneal washing of white male Wistar rats aged 12 weeks with 10 ml of HBS-Hanks (Serva Feinbiochemica, Heidelberg). […] All cells were stored for a period of at most 2 hours after preparation until flow-cytrometric analysis at 4° C.
The cell volume and two fluorescences were simultaneously measured in about 10,000 cells per sample using a FACScan flow cytometer (Becton Dickinson, San Jose, Calif., USA). […] The flow cytometer was calibrated with standardized yellow-green-fluorescing microspheres of 4.3 μm diameter (Polysciences, St. Goar, F.R.G.).
as §1

[2] = known; cited from earlier work

CCCn1cnc2c1c(=O)n(CCCCC(C)=O)c(=O)n2C [compound 1, 1-(5-oxohexyl)-3-methyl-7-n-propylxanthine]
vasodilating action [1]: vasodilating action | inhibition of free radical formation (microglia cells; 50 μM): clear inhibition | fluorescence, Compound 1 (microglia cells; 50 μM, 15 min): 2060.6 apparatusspecific units | fluorescence, Compound 1 (microglia cells; 50 μM, 25 min): 2121.3 apparatusspecific units | fluorescence, Compound 1 (microglia cells; 50 μM, 35 min): 1170.4 apparatusspecific units | maximum depression of cellular Rhodamine 123 fluorescence (microglia cells; 50 μM, 35 min): about one-third | fluorescence, Compound 1 (microglia cells; 50 μM, 45 min): 1556.9 apparatusspecific units | fluorescence, Compound 1 (microglia cells; 50 μM, 60 min): 910.4 apparatusspecific units | significance of effect of compound 1 (microglia cells; 50 μM, incubation times of over 15 min): significant (p<0.05 in the t-test) | inhibition at 50 µM (microglia cells; 25 min): 19% | inhibition at 50 µM (microglia cells; 35 min): 27% | inhibition at 50 µM (microglia cells; 0.75 h, 45 min): 23% | inhibition at 50 µM (microglia cells; 1 h, 60 min): 27% | suppressive effect on free radical formation, dose dependence (peritoneal macrophages; 10 μM and 50 μM): dose-dependent | stimulatory effect of conA in the presence of compound 1 (peritoneal macrophages; 50 μM compound 1): blocked | fluorescence, conA ± Comp. 1 (peritoneal macrophages; 15 min): 9.0875 apparatusspecific units | fluorescence, conA ± Comp. 1 (peritoneal macrophages; 25 min): 8.0867 apparatusspecific units | fluorescence, conA ± Comp. 1 (peritoneal macrophages; 35 min): 25.5 apparatusspecific units | fluorescence, conA ± Comp. 1 (peritoneal macrophages; 45 min): 31.755 apparatusspecific units | significance of effect of compound 1 (peritoneal macrophages; 50 μM, all measurements with incubation times over 15 min): significant (p<0.05 in the t-test) | inhibition at 50 µM (peritoneal macrophages; Rattus norvegicus, Peritoneal macrophage, 25 min, 50 μM): 60% | inhibition at 10 µM (peritoneal macrophages; Rattus norvegicus, Peritoneal macrophage, 35 min, 10 μM, maximum conA activation, p<0.05 in the t-test): 21% | inhibition at 50 µM (peritoneal macrophages; Rattus norvegicus, Peritoneal macrophage, 35 min, 50 μM): 37% | inhibition at 50 µM (peritoneal macrophages; Rattus norvegicus, Peritoneal macrophage, 0.75 h, 50 μM, 45 min): 32% | toxicity [2]: low toxicity
